According to patent US20240390298A1, “CYCLOHEXYL BETA-HYDROXY ALKYL AMINES AND MEDICAL USES THEREOF” (ATROGI AB, priority 2021, published 2024):
Structures can show the parent of a compound that is named as a salt.

Assays:
L6-myotubes [1] = assay: Glucose uptake in differentiated L6-myotubes (3H-2-deoxyglucose), compared to isoproterenol; format: cell-based; conditions: agonist 1×10^−5 M, 50 nM 3H-2-deoxyglucose
Protocol: (§1) L6-myoblasts were grown in Dulbecco's Modified Eagle's Medium (DMEM) containing 1 g/L glucose supplemented with 10% fetal bovine serum, 2 mM L-Glutamine, 50 U/mL penicillin, 50 μg/mL streptomycin and 10 mM HEPES. Cells were plated at 1×10^5 cells per mL in 24-well plates. After reaching 90% confluence the cells were grown in medium containing 2% FBS for 7 days where upon cells differentiated into myotubes.
Differentiated L6-myotubes were serum-starved overnight in medium containing 0.5% fatty-acid free BSA and stimulated with an agonist, with a final concentration of 1×10^−5 M. After 1 h 40 min the cells were washed with warm glucose free medium or PBS twice and another portion of agonist was added to the glucose free medium. After 20 min the cells were exposed to 50 nM ^3H-2-deoxyglucose for 10 min before washed with ice cold glucose free medium or PBS three times and lysed with 0.2 M NaOH, 400 μL/well, for 1 h at 60° C. The cell lysate was mixed with 4 mL scintillation buffer (Emulsifier Safe, Perkin Elmer) and the radioactivity was detected in a β-counter (Tri-Carb 4810TR, Perkin Elmer). The activity for each compound is compared to that of isoproterenol.

L6-myotubes [2] = assay: Measurement of intracellular cAMP levels in differentiated L6 cells (alpha screen cAMP kit), compared to isoproterenol; format: cell-based; conditions: Rattus norvegicus, L6, 0.25 h, agonist 1×10^−5 M, 15 min, read-out: Biological example 2: intracellular cAMP levels, activity compared to that of isoproterenol
Protocol: as §1
Differentiated cells were serum-starved overnight and stimulated with an agonist, final concentration 1×10^−5 M, for 15 min in stimulation buffer (HBSS supplemented with 1% BSA, 5 mM HEPES and 1 mM IBMX, pH 7.4). The medium was aspirated and 100 μL of 95% EtOH was added to each well of the 24-well plate and cells were kept at −20° C. overnight. The EtOH was allowed to evaporate and 500 μL of lysis buffer (1% BSA, 5 mM HEPES and 0.3% Tween-20, pH 7.4) was added to each well. The plate was kept at −80° C. for 30 min and then at −20° C. until the day of detection when the samples were thawed. Intracellular cAMP levels were detected using an alpha screen cAMP kit (6760635D from Perkin Elmer). The activity for each compound is compared to that of isoproterenol.

Structure (SMILES)	Biological example 1: glucose uptake, activity compared to that of isoproterenol (L6-myotubes [1])	Emax at 10 µM (L6-myotubes [2])	Emax at 10 µM (L6-myotubes [1]; read-out: Biological example 1: glucose uptake, activity compared to that of isoproterenol)
CC(C)(C[C@H]1CC[C@H](NC(=O)OC(C)(C)C)CC1)NC[C@H](O)c1cccc(F)c1 [Example 153, tert-Butyl ((1R,4r)-4-(2-(((R)-2-(3-fluorophenyl)-2-hydroxyethyl)amino)-2-methylpropyl)cyclohexyl)carbamate]	+ + +	25 to 50%	–
COC(=O)[C@H]1CC[C@H](CC(C)(C)NC[C@H](O)c2cncc(F)c2)CC1 [Example 108, Methyl (1R,4r)-4-(2-(((R)-2-(5-fluoropyridin-3-yl)-2-hydroxyethyl)amino)-2-methylpropyl)cyclohexane-1-carboxylate]	+ +	< 25%	–
CNS(=O)(=O)[C@H]1CC[C@H](CC(C)(C)NC[C@H](O)c2cncc(F)c2)CC1 [Example 191, (1R,4r)-4-(2-(((R)-2-(5-Fluoropyridin-3-yl)-2-hydroxyethyl)amino)-2-methylpropyl)-N-methylcyclohexane-1-sulfonamide dihydrochloride]	+ +	< 25%	–
CC(C)(NC[C@H](O)c1cncc(F)c1)[C@H]1CC[C@H](NS(C)(=O)=O)CC1 [Example 83, N-((1R,4r)-4-(2-(((R)-2-(5-Fluoropyridin-3-yl)-2-hydroxyethyl)amino)-propan-2-yl)cyclohexyl)methanesulfonamide]	–	< 25%	25 to 50%
CO[C@H]1CC[C@H](CCC(C)(C)NC[C@H](O)c2cccc(F)c2)CC1.Cl [Example 21, (R)-1-(3-Fluorophenyl)-2-((4-((1r,4S)-4-methoxycyclohexyl)-2-methyl-butan-2-yl)amino)ethan-1-ol hydrochloride]	+ +	< 25%	–
CC(C)(C[C@H]1CC[C@H](O)CC1)NC[C@H](O)c1cncc(F)c1 [Example 52, (1R,4r)-4-(2-(((R)-2-(5-Fluoropyridin-3-yl)-2-hydroxyethyl)amino)-2-methylpropyl)cyclohexan-1-ol]	+ + +	< 25%	–
CS(=O)(=O)N[C@H]1CC[C@@H](CNC[C@H](O)c2cncc(F)c2)CC1 [Example 78, N-((1S,4s)-4-((((R)-2-(5-Fluoropyridin-3-yl)-2-hydroxyethyl)amino)methyl)-cyclohexyl)methanesulfonamide]	+ +	< 25%	–
CC(C)(CC[C@H]1CC[C@H](NS(C)(=O)=O)CC1)NC[C@H](O)c1cncc(F)c1 [Example 94, N-((1S,4r)-4-(3-(((R)-2-(5-Fluoropyridin-3-yl)-2-hydroxyethyl)amino)-3-methylbutyl)cyclohexyl)methanesulfonamide]	+ +	< 25%	–
CO[C@H]1CC[C@@H](CCC(C)(C)NC[C@H](O)c2cccc(F)c2)CC1.Cl [Example 23, (R)-1-(3-Fluorophenyl)-2-((4-((1s,4R)-4-methoxycyclohexyl)-2-methylbutan-2-yl)amino)ethan-1-ol hydrochloride]	+ + +	25 to 50%	–
CC(C)(C[C@H]1CC[C@@H](NS(C)(=O)=O)CC1)NC[C@H](O)c1cncc(F)c1 [Example 177, N-((1S,4s)-4-(2-(((R)-2-(5-Fluoropyridin-3-yl)-2-hydroxyethyl)amino)-2-methylpropyl)cyclohexyl)methanesulfonamide]	+ + +	< 25%	–
CC(C)(C[C@H]1CC[C@@H](NC(=O)OC(C)(C)C)CC1)NC[C@H](O)c1cccc(F)c1 [Example 162, tert-Butyl ((1S,4s)-4-(2-(((R)-2-(3-fluorophenyl)-2-hydroxyethyl)amino)-2-methylpropyl)cyclohexyl)carbamate]	+ + +	< 25%	–
CC(C)(C[C@H]1CC[C@@H](NS(C)(=O)=O)CC1)NC[C@@H](O)c1cccc(C#N)n1 [Example 138, N-((1S,4s)-4-(2-(((R)-2-(6-Cyanopyridin-2-yl)-2-hydroxyethyl)amino)-2-methylpropyl)cyclohexyl)methanesulfonamide]	+ +	< 25%	–
CC(C)(C[C@H]1CC[C@H](NS(=O)(=O)C(F)(F)F)CC1)NC[C@H](O)c1cccc(F)c1 [Example 160, 1,1,1-Trifluoro-N-((1R,4r)-4-(2-(((R)-2-(3-fluorophenyl)-2-hydroxyethyl)-amino)-2-methylpropyl)cyclohexyl)methanesulfonamide hydrochloride]	+ + +	< 25%	–
CC(C)(C[C@H]1CC[C@@H](NC(=O)C2CCC2)CC1)NC[C@H](O)c1cccc(F)c1 [Example 167, N-((1S,4s)-4-(2-(((R)-2-(3-Fluorophenyl)-2-hydroxyethyl)amino)-2-methylpropyl)cyclohexyl)cyclobutanecarboxamide hydrochloride]	+ +	< 25%	–
CC(C)(C[C@H]1CC[C@H](S(N)(=O)=O)CC1)NC[C@H](O)c1cccc(F)c1.Cl [Example 194, (1R,4r)-4-(2-(((R)-2-(3-Fluorophenyl)-2-hydroxyethyl)amino)-2-methylpropyl)cyclohexane-1-sulfonamide hydrochloride]	+ + +	< 25%	–
CNS(=O)(=O)[C@H]1CC[C@@H](CC(C)(C)NC[C@H](O)c2cccc(F)c2)CC1.Cl [Example 192, (1S,4s)-4-(2-(((R)-2-(3-Fluorophenyl)-2-hydroxyethyl)amino)-2-methyl-propyl)-N-methylcyclohexane-1-sulfonamide hydrochloride]	+ + +	< 25%	–
CC(C)(C[C@H]1CC[C@@H](NS(C)(=O)=O)CC1)NC[C@H](O)c1cccc(C#N)n1 [Example 142, N-((1R,4s)-4-(2-(((S)-2-(6-Cyanopyridin-2-yl)-2-hydroxyethyl)amino)-2-methylpropyl)cyclohexyl)methanesulfonamide]	+ + +	< 25%	–
O=C(N[C@H]1CC[C@@H](CNC[C@H](O)c2cncc(F)c2)CC1)c1ccccc1 [Example 76, N-((1S,4s)-4-((((R)-2-(5-Fluoropyridin-3-yl)-2-hydroxyethyl)amino)methyl)-cyclohexyl)benzamide]	+ +	< 25%	–
CO[C@H]1CC[C@H](CNC[C@H](O)c2cncc(F)c2)CC1 [Example 4, (R)-1-(5-Fluoropyridin-3-yl)-2-((((1r,4R)-4-methoxycyclohexyl)-methyl)amino)ethan-1-ol]	+ +	< 25%	–
CC(C)(NC[C@H](O)c1cccc(F)c1)[C@H]1CC[C@@H](OCC(=O)O)CC1 [Example 128, 2-(((1S,4s)-4-(2-(((R)-2-(3-Fluorophenyl)-2-hydroxyethyl)amino)propan-2-yl)cyclohexyl)oxy)acetic acid]	+ +	< 25%	–
CC(=O)N[C@H]1CC[C@H](CC(C)(C)NC[C@H](O)c2cncc(F)c2)CC1 [Example 87, N-((1R,4r)-4-(2-(((R)-2-(5-Fluoropyridin-3-yl)-2-hydroxyethyl)amino)-2-methylpropyl)cyclohexyl)acetamide]	+ + +	< 25%	–
CC(=O)N[C@H]1CC[C@H](CC(C)(C)NC[C@H](O)c2cccc(C#N)n2)CC1 [Example 139, N-((1S,4r)-4-(2-(((S)-2-(6-Cyanopyridin-2-yl)-2-hydroxyethyl)amino)-2-methylpropyl)cyclohexyl)acetamide]	+ + +	25 to 50%	–
CO[C@H]1CC[C@@H](CNC[C@H](O)c2cncc(F)c2)CC1 [Example 2, (R)-1-(5-Fluoropyridin-3-yl)-2-((((1s,4S)-4-methoxycyclohexyl)-methyl)amino)ethan-1-ol]	+ +	< 25%	–
CC(C)(C[C@H]1CC[C@@H](NS(=O)(=O)C(F)(F)F)CC1)NC[C@H](O)c1cccc(F)c1 [Example 172, 1,1,1-Trifluoro-N-((1S,4s)-4-(2-(((R)-2-(3-fluorophenyl)-2-hydroxyethyl)-amino)-2-methylpropyl)cyclohexyl)methanesulfonamide hydrochloride]	+ +	< 25%	–
